# Like-named read-outs stand apart in the source and are kept apart here.
# What was measured:
# [1] = format: physicochemical; conditions: 0.1 N HCl 37° C.; for % hydrocodone, % Ketal in hydrolysis mixture: hydrocodone 1,3-propanediol ketal; for % hydrocodone, % Ketal in hydrolysis mixture / Hydrocodone, 2R,5R ketal in hydrolysis mixture / Hydrocodone, 2S,5S ketal in hydrolysis mixture / Oxycodone in hydrolysis mixture / % Oxycodone, % IVD in hydrolysis mixture / % Oxycodone, % Ketal a, b in hydrolysis mixture / % Oxycodone, % Ketal A, B in hydrolysis mixture: 1 mg/ml; for Hydrocodone, 2R,5R ketal in hydrolysis mixture: hydrocodone 2R,5R-hexanediol ketal tested separately; for Hydrocodone, 2S,5S ketal in hydrolysis mixture: hydrocodone 2S,5S-hexanediol ketal tested separately; for % Oxycodone, % IVA-IVD in hydrolysis mixture: total 1 mg/ml; for Oxycodone in hydrolysis mixture: from isomer IVC tested separately; for Oxycodone in hydrolysis mixture / % Oxycodone, % IVD in hydrolysis mixture: normalized; for % Oxycodone, % IVD in hydrolysis mixture: isomer IVD tested separately; for % Oxycodone, % Ketal a, b in hydrolysis mixture: mixture of oxycodone 3,5-octanediol ketals; for % Oxycodone, % Ketal A, B in hydrolysis mixture: mixture of oxycodone cis 1,2-cyclohexanedimethanol ketals
# [2] = Hydrolysis in Simulated Gastric Fluid (SGF) at 37° C., LC/MS; conditions: SGF 37° C.; for Hydrocodone in hydrolysis mixture: from hydrocodone 2,4-pentanediol ketal isomers, 1 mg/ml; for Oxycodone, Ketal A-D in hydrolysis mixture: oxycodone 2,4-pentanediol ketal isomers + unreacted oxycodone, 2 mg/nil
# [3] = 1 mg/ml, 5% acetic acid 100° C.; for % Oxycodone, % IVA-IVD in hydrolysis mixture: unreacted oxycodone + four isomers of Formula IV; for % Oxycodone, % Va-Vd in hydrolysis mixture: unreacted oxycodone + four isomers of Formula V
smiles,measurement,setting,value
"COc1ccc2c3c1O[C@H]1C(=O)CC[C@H]4[C@@H](C2)N(C)CC[C@]314 [Hydrocodone, hydrocodone, reference compound]","% hydrocodone, % Ketal in hydrolysis mixture",[1]; 0 h,6.9%
same,"% hydrocodone, % Ketal in hydrolysis mixture",[1]; 0.57 h,34.3%
same,"% hydrocodone, % Ketal in hydrolysis mixture",[1]; 1.25 h,47.7%
same,"% hydrocodone, % Ketal in hydrolysis mixture",[1]; 2 h,58.2%
same,"% hydrocodone, % Ketal in hydrolysis mixture",[1]; 3 h,67.8%
same,"% hydrocodone, % Ketal in hydrolysis mixture",[1]; 4 h,74.4%
same,"Hydrocodone, 2R,5R ketal in hydrolysis mixture",[1]; 0 h,26.1
same,"Hydrocodone, 2R,5R ketal in hydrolysis mixture",[1]; 0.5 h,65.4
same,"Hydrocodone, 2R,5R ketal in hydrolysis mixture",[1]; 1.25 h,88.6
same,"Hydrocodone, 2R,5R ketal in hydrolysis mixture",[1]; 2 h,97.3
same,"Hydrocodone, 2R,5R ketal in hydrolysis mixture",[1]; 3 h,100
same,"Hydrocodone, 2R,5R ketal in hydrolysis mixture",[1]; 4 h,100
same,"Hydrocodone, 2S,5S ketal in hydrolysis mixture",[1]; 0 h,18.02
same,"Hydrocodone, 2S,5S ketal in hydrolysis mixture",[1]; 0.5 h,47.82
same,"Hydrocodone, 2S,5S ketal in hydrolysis mixture",[1]; 1.25 h,64.89
same,"Hydrocodone, 2S,5S ketal in hydrolysis mixture",[1]; 2 h,89.81
same,"Hydrocodone, 2S,5S ketal in hydrolysis mixture",[1]; 3 h,95.71
same,"Hydrocodone, 2S,5S ketal in hydrolysis mixture",[1]; 4 h,98
same,Hydrocodone in hydrolysis mixture,[2]; 0 h,1
same,Hydrocodone in hydrolysis mixture,[2]; 0.58 h,33.7
same,Hydrocodone in hydrolysis mixture,[2]; 1.25 h,45.9
same,Hydrocodone in hydrolysis mixture,[2]; 2 h,48.1
same,Hydrocodone in hydrolysis mixture,[2]; 3 h,55.1
same,Hydrocodone in hydrolysis mixture,[2]; 4 h,58.3
"COc1ccc2c3c1O[C@H]1C(=O)CC[C@@]4(O)[C@@H](C2)N(C)CC[C@]314 [Oxycodone, oxycodone, reference compound]","% Oxycodone, % IVA-IVD in hydrolysis mixture",[1]; 0 h,11.4%
same,"% Oxycodone, % IVA-IVD in hydrolysis mixture",[1]; 0.583 h,25.5%
same,"% Oxycodone, % IVA-IVD in hydrolysis mixture",[1]; 1.167 h,33%
same,"% Oxycodone, % IVA-IVD in hydrolysis mixture",[1]; 1.75 h,44%
same,"% Oxycodone, % IVA-IVD in hydrolysis mixture",[1]; 2.33 h,47.6%
same,"% Oxycodone, % IVA-IVD in hydrolysis mixture",[1]; 2.92 h,50.9%
same,"% Oxycodone, % IVA-IVD in hydrolysis mixture",[1]; 4 h,56.8%
same,"% Oxycodone, % IVA-IVD in hydrolysis mixture",[1]; 6.5 h,66%
same,"% Oxycodone, % IVA-IVD in hydrolysis mixture",[1]; 9.75 h,72.6%
same,"% Oxycodone, % IVA-IVD in hydrolysis mixture",[1]; 13.75 h,79.7%
same,"% Oxycodone, % IVA-IVD in hydrolysis mixture",[1]; 25 h,86.4%
same,Oxycodone in hydrolysis mixture,[1]; 0 h,1.3
same,Oxycodone in hydrolysis mixture,[1]; 0.75 h,28.5
same,Oxycodone in hydrolysis mixture,[1]; 1.5 h,46
same,Oxycodone in hydrolysis mixture,[1]; 3.33 h,81.2
same,Oxycodone in hydrolysis mixture,[1]; 6 h,95.3
same,Oxycodone in hydrolysis mixture,[1]; 8 h,97.9
same,"% Oxycodone, % IVD in hydrolysis mixture",[1]; 0 h,0.8%
same,"% Oxycodone, % IVD in hydrolysis mixture",[1]; 0.17 h,26.9%
same,"% Oxycodone, % IVD in hydrolysis mixture",[1]; 0.33 h,55.2%
same,"% Oxycodone, % IVD in hydrolysis mixture",[1]; 1 h,89.2%
same,"% Oxycodone, % IVD in hydrolysis mixture",[1]; 2 h,98%
same,"% Oxycodone, % Ketal a, b in hydrolysis mixture",[1]; 0 h,0.3%
same,"% Oxycodone, % Ketal a, b in hydrolysis mixture",[1]; 0.33 h,12.1%
same,"% Oxycodone, % Ketal a, b in hydrolysis mixture",[1]; 1 h,26.5%
same,"% Oxycodone, % Ketal a, b in hydrolysis mixture",[1]; 2 h,40.7%
same,"% Oxycodone, % Ketal a, b in hydrolysis mixture",[1]; 4 h,56.1%
same,"% Oxycodone, % Ketal A, B in hydrolysis mixture",[1]; 0 h,27.2%
same,"% Oxycodone, % Ketal A, B in hydrolysis mixture",[1]; 0.56 h,28.1%
same,"% Oxycodone, % Ketal A, B in hydrolysis mixture",[1]; 1.25 h,33.8%
same,"% Oxycodone, % Ketal A, B in hydrolysis mixture",[1]; 2 h,37.4%
same,"% Oxycodone, % Ketal A, B in hydrolysis mixture",[1]; 4.45 h,56.4%
same,"% Oxycodone, % IVA-IVD in hydrolysis mixture",[3]; 0 h,10.3%
same,"% Oxycodone, % IVA-IVD in hydrolysis mixture",[3]; 0.5 h,55.8%
same,"% Oxycodone, % IVA-IVD in hydrolysis mixture",[3]; 1 h,69.6%
same,"% Oxycodone, % IVA-IVD in hydrolysis mixture",[3]; 2 h,83.9%
same,"% Oxycodone, % IVA-IVD in hydrolysis mixture",[3]; 4.35 h,87.9%
same,"% Oxycodone, % IVA-IVD in hydrolysis mixture",[3]; 10 h,95.2%
same,"% Oxycodone, % Va-Vd in hydrolysis mixture",[3]; 0 h,1%
same,"% Oxycodone, % Va-Vd in hydrolysis mixture",[3]; 0.33 h,31.8%
same,"% Oxycodone, % Va-Vd in hydrolysis mixture",[3]; 0.67 h,46.4%
same,"% Oxycodone, % Va-Vd in hydrolysis mixture",[3]; 1 h,56.5%
same,"% Oxycodone, % Va-Vd in hydrolysis mixture",[3]; 2 h,72.8%
same,"% Oxycodone, % Va-Vd in hydrolysis mixture",[3]; 4 h,85.4%
same,"Oxycodone, Ketal A-D in hydrolysis mixture",[2]; 0 h,7.3
same,"Oxycodone, Ketal A-D in hydrolysis mixture",[2]; 0.58 h,19.9
same,"Oxycodone, Ketal A-D in hydrolysis mixture",[2]; 1.25 h,35.3
same,"Oxycodone, Ketal A-D in hydrolysis mixture",[2]; 2 h,43
same,"Oxycodone, Ketal A-D in hydrolysis mixture",[2]; 3 h,51
same,"Oxycodone, Ketal A-D in hydrolysis mixture",[2]; 4 h,58.7

# Source: patent US11091496B2, “Opioid ketal compounds and uses thereof” (priority 2013, dated 2021)
